Assay results reported in ChEMBL document CHEMBL5233284, “Design, synthesis and anticancer evaluation of 3-methyl-1H-indazole derivatives as novel selective bromodomain-containing protein 4 inhibitors” (Bioorg Med Chem, 2021).
Activity calls are given as the source filed them. The calls are words filed in the database; no cut-off is given here.

Key:
[1] = target: T1, Bromodomain-containing protein 4 (Homo sapiens, UniProt O60885); conditions: dose 200.0 µM, time 30-60 min
Description: Binding affinity to BRD4-BD1 (unknown origin) assessed as change in melting temperature at 200 uM incubated for 30 to 60 mins by SYPRO orange dye based thermal shift assay

MV4-11 [2] = test: Antiproliferative activity against human MV4-11 cells assessed as inhibition of cell growth at 10 uM incubated for 96 to 120 hrs by celltiter glo assay relative to control; format: functional; conditions: for inhibition at 10 µM: Homo sapiens, MV4-11, time 96-120 hrs
MV4-11 [3] = test: Antiproliferative activity against human MV4-11 cells assessed as inhibition of cell growth incubated for 96 to 120 hrs by celltiter glo assay; format: functional, cell-based
[4] = target: T1, Bromodomain-containing protein 4; test: Inhibition of BRD4-BD1 (unknown origin) using C-terminal biotinylated tetra-acetylated histone H4 peptide as substrate incubated for 2.5 hrs by alphascreen assay
CWR22R [5] = test: Antiproliferative activity against human 22Rv1 cells assessed as inhibition of cell growth at 10 uM incubated for 96 to 120 hrs by celltiter glo assay relative to control; format: functional; conditions: for inhibition at 10 µM: Homo sapiens, 22Rv1, time 96-120 hrs
[6] = target: T1, Bromodomain-containing protein 4; test: Inhibition of BRD4-BD1 (unknown origin) at 60 uM relative to control
CWR22R [7] = test: Antiproliferative activity against human 22Rv1 cells assessed as inhibition of cell growth incubated for 96 to 120 hrs by celltiter glo assay; format: functional, cell-based
[8] = target: SWI/SNF-related matrix-associated actin-dependent regulator of chromatin subfamily A member 2 (Homo sapiens) (UniProt P51531); test: Binding affinity to SMARCA2A (unknown origin) assessed as change in melting temperature at 200 uM incubated for 30 to 60 mins by SYPRO orange dye based thermal shift assay; conditions: time 30-60 min
SWI/SNF-related matrix-associated actin-dependent regulator of chromatin subfamily A member 2 (Homo sapiens), sequence (P51531 whole entry): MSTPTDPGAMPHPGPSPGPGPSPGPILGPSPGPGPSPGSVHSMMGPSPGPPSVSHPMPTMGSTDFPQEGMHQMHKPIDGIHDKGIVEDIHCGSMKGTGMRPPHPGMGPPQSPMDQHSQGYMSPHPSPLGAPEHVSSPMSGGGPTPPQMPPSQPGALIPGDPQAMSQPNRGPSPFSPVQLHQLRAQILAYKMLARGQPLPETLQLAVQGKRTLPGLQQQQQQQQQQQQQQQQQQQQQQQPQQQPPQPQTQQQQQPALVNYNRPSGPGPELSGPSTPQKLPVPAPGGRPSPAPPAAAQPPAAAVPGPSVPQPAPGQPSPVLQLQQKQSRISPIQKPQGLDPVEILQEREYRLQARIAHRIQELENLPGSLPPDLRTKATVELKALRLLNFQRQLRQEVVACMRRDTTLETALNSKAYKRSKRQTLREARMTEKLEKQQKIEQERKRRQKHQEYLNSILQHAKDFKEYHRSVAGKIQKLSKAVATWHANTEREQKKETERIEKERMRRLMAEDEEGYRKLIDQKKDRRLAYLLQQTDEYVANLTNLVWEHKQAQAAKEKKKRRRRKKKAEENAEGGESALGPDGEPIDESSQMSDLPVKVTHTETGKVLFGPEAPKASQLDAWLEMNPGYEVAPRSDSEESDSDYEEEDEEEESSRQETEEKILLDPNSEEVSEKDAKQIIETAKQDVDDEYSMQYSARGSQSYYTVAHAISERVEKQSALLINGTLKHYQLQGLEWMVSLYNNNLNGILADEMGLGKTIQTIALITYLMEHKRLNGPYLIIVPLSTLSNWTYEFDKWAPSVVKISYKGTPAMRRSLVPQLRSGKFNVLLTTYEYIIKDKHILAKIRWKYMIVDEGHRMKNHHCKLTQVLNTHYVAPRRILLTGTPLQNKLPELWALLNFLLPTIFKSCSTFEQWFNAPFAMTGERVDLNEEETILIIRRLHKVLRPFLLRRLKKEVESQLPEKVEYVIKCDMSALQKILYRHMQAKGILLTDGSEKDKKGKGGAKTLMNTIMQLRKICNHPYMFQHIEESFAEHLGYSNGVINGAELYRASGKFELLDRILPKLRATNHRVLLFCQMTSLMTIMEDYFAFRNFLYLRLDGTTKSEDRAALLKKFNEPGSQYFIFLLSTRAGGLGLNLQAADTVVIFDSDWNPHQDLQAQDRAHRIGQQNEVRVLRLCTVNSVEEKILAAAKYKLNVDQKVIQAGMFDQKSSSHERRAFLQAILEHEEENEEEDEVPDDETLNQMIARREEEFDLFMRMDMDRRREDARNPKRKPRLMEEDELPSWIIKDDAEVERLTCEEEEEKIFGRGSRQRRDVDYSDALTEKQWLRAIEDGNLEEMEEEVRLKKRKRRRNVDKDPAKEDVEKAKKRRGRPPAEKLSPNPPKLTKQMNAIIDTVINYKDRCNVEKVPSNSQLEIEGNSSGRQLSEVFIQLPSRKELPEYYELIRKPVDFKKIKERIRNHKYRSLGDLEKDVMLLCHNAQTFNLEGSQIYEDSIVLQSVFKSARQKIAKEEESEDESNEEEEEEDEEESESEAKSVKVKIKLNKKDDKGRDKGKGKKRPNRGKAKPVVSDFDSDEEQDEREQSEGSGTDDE

[9] = target: Chromatin remodeling regulator CECR2 (Homo sapiens) (UniProt Q9BXF3); test: Binding affinity to CECR2 (unknown origin) assessed as change in melting temperature at 200 uM incubated for 30 to 60 mins by SYPRO orange dye based thermal shift assay; conditions: time 30-60 min
[10] = target: Histone acetyltransferase p300 (Homo sapiens) (UniProt Q09472); test: Binding affinity to EP300 (unknown origin) assessed as change in melting temperature at 200 uM incubated for 30 to 60 mins by SYPRO orange dye based thermal shift assay; conditions: time 30-60 min
Histone acetyltransferase p300 (Homo sapiens), sequence (Q09472 whole entry): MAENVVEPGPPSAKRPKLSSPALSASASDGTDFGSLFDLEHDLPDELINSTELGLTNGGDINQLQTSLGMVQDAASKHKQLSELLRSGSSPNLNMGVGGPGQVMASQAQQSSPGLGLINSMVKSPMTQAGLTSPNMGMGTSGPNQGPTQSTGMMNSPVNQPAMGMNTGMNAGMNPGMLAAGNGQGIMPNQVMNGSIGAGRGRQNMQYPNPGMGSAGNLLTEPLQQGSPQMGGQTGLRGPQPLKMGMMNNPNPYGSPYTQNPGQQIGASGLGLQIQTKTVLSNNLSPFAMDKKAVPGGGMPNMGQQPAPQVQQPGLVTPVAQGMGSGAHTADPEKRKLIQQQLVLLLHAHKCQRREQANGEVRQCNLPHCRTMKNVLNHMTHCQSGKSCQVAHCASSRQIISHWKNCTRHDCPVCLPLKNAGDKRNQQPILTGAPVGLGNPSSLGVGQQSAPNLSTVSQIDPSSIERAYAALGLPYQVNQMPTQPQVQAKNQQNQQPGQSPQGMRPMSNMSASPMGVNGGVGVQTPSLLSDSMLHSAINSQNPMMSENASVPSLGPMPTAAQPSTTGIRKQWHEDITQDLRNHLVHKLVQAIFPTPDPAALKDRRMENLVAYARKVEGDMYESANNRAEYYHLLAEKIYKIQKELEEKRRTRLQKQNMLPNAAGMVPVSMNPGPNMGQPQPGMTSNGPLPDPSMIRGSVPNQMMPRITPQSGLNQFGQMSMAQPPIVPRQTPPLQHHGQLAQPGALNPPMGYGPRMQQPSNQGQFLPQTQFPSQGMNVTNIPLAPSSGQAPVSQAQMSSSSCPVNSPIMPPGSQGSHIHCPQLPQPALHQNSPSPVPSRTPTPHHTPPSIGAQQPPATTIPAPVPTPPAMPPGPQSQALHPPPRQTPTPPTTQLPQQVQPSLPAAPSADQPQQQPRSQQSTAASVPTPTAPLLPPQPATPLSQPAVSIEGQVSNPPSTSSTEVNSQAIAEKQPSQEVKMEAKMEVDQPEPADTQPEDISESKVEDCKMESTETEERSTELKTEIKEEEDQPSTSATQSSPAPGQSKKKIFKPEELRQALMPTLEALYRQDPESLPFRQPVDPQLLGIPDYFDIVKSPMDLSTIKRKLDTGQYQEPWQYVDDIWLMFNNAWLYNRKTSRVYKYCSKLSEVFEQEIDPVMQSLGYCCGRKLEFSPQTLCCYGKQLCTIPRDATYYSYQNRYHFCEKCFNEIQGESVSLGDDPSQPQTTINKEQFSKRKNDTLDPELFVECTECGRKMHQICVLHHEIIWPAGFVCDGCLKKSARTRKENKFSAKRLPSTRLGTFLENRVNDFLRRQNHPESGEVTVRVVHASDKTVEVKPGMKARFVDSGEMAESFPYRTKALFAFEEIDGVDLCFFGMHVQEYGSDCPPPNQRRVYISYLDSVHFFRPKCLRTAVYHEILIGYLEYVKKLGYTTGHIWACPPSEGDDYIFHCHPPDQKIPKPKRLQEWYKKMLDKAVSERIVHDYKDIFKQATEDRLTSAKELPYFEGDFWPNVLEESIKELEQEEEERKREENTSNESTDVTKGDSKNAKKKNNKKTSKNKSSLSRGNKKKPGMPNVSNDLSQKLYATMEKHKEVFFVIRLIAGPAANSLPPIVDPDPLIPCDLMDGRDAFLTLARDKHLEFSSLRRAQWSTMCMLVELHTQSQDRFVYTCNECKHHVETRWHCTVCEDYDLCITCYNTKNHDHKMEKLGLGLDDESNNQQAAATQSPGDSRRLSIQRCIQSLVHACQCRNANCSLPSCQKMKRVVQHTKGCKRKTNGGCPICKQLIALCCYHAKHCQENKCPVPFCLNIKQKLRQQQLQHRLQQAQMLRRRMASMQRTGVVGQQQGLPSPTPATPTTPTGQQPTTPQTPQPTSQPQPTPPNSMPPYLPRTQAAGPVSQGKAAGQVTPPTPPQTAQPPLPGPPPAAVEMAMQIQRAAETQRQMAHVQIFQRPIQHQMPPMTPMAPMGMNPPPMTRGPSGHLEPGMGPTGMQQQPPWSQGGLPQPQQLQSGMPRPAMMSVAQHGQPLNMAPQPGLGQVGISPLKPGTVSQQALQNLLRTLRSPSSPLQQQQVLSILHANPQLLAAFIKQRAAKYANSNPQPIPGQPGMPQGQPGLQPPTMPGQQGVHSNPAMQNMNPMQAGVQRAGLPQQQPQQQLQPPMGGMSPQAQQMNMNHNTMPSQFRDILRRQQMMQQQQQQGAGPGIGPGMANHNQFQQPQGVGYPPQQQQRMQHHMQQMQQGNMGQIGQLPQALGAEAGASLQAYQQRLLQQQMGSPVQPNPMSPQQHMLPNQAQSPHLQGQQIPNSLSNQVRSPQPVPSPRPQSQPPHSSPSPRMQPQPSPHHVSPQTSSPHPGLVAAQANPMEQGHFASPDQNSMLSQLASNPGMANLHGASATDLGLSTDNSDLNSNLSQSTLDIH

[11] = target: Bromodomain-containing protein 3 (Homo sapiens) (UniProt Q15059); test: Binding affinity to BRD3 BD1 (unknown origin) assessed as change in melting temperature at 200 uM incubated for 30 to 60 mins by SYPRO orange dye based thermal shift assay; conditions: time 30-60 min
[12] = target: T1, Bromodomain-containing protein 4; test: Inhibition of BRD4 BD1 in human MV4-11 cells assessed as inhibition of c-myc protein expression at 20 uM incubated for 48 hrs by Western blot analysis; format: cell-based
[13] = target: Bromodomain adjacent to zinc finger domain protein 2B (Homo sapiens) (UniProt Q9UIF8); test: Binding affinity to BAZ2B (unknown origin) assessed as change in melting temperature at 200 uM incubated for 30 to 60 mins by SYPRO orange dye based thermal shift assay; conditions: time 30-60 min
[14] = target: Bromodomain-containing protein 2 (Homo sapiens) (UniProt P25440); test: Binding affinity to BRD2 BD1 (unknown origin) assessed as change in melting temperature at 200 uM incubated for 30 to 60 mins by SYPRO orange dye based thermal shift assay; conditions: time 30-60 min
Bromodomain-containing protein 2 (Homo sapiens), sequence (P25440 whole entry, looked up): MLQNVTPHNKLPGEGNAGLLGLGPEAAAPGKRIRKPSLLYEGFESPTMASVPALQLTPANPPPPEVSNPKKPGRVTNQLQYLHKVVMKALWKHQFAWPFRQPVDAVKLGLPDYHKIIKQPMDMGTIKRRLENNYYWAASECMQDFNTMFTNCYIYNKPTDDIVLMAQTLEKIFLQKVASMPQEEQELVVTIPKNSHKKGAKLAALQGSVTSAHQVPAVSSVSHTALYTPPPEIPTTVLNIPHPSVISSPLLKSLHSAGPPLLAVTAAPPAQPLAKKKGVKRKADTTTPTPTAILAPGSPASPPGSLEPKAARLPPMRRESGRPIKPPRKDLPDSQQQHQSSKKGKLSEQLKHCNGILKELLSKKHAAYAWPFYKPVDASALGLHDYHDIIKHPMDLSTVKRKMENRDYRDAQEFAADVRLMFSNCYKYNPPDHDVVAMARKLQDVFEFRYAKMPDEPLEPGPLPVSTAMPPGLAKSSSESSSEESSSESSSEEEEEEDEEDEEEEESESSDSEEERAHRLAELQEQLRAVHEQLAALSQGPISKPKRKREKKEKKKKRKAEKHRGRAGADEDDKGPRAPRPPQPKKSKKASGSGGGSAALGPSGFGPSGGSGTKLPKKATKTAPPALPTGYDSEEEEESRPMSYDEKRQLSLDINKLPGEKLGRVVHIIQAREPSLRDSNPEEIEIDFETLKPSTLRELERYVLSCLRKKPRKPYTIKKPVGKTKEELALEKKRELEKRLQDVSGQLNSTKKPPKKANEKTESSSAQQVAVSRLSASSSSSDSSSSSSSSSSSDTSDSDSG

[15] = target: CREB-binding protein (Homo sapiens) (UniProt Q92793); test: Binding affinity to CBP (unknown origin) assessed as change in melting temperature at 200 uM incubated for 30 to 60 mins by SYPRO orange dye based thermal shift assay; conditions: time 30-60 min
[16] = target: Histone acetyltransferase KAT2B (Homo sapiens) (UniProt Q92831); test: Binding affinity to PCAF (unknown origin) assessed as change in melting temperature at 200 uM incubated for 30 to 60 mins by SYPRO orange dye based thermal shift assay; conditions: time 30-60 min

Structure (SMILES)	ΔTm [1] [°C]	inhibition at 10 µM (MV4-11 [2]) [%]	IC50 (MV4-11 [3]) [µM]	IC50 [4] [µM]	inhibition at 10 µM (CWR22R [5]) [%]	other results
Cc1n[nH]c2ccc(-c3nc4cnc(N5CCN(C)CC5)cn4c3Nc3ccc(Br)cc3Cl)cc12	2.7	70.5	9.22			
Cc1n[nH]c2ccc(-c3nc4cnc(N5CCN(C)CC5)cn4c3Nc3ccc(Cl)cc3Cl)cc12	2	78.8	4.72	16	9.53	
COc1ccc(Nc2c(-c3ccc4[nH]nc(C)c4c3)nc3cnc(N4CCN(C)CC4)cn23)cc1	5.3	3.32		20.5	0	
COc1cc(-c2nc3cnccn3c2Nc2ccccc2)ccc1O						inhibition [6]: 40%
Cc1n[nH]c2ccc(-c3nc4cnc(N5CCN(C)CC5)cn4c3Nc3ccc(F)cc3Br)cc12	5.1	82.4	3.83	7.48	4.41	
Cc1n[nH]c2ccc(-c3nc4cnc(N5CCN(C)CC5)cn4c3Nc3cccc(Cl)c3)cc12	6.3	0				
Cc1n[nH]c2ccc(-c3nc4cnc(N5CCOCC5)cn4c3Cc3ccc(Cl)cc3)cc12	6.6	0				
Cc1n[nH]c2ccc(-c3nc4cnc(N5CCN(C)CC5)cn4c3Nc3ccc(F)c(Cl)c3)cc12	6	84.1	2.85	5.81	0.82	IC50 (CWR22R [7]): 14 µM
Cc1n[nH]c2ccc(-c3nc4cnc(N5CCN(C)CC5)cn4c3Nc3ccc(Br)cc3)cc12	7.2	83	2.6	6.94	11.7	
Cc1n[nH]c2ccc(-c3nc4cnc(N5CCN(C)CC5)cn4c3Nc3ccc(I)cc3)cc12	4.5	0				
Cc1n[nH]c2ccc(-c3nc4cnc(N5CCN(C)CC5)cn4c3Nc3ccc(F)cc3)cc12	6.5	0	32.3	4.17		IC50 (CWR22R [7]): 33.6 µM
Cc1n[nH]c2ccc(-c3nc4cnc(N5CCN(C)CC5)cn4c3Nc3ccc(Cl)cc3F)cc12	4.5	0	10.3	6.78		IC50 (CWR22R [7]): 14.1 µM
Cc1n[nH]c2ccc(-c3nc4cnc(N5CCN(C)CC5)cn4c3Nc3cc(Cl)ccc3Cl)cc12	3.9	23.8		3.61	3.8	
Cc1cc(Br)ccc1Nc1c(-c2ccc3[nH]nc(C)c3c2)nc2cnc(N3CCN(C)CC3)cn12	3.7	59.4	10.8			IC50 (CWR22R [7]): 6.51 µM
Cc1n[nH]c2ccc(-c3nc4cnc(N5CCN(C)CC5)cn4c3Nc3ccc(Cl)cc3)cc12	5	83.7	3.51	6.35	8.11	
Cc1ccc(C)c(Nc2c(-c3ccc4[nH]nc(C)c4c3)nc3cnc(N4CCN(C)CC4)cn23)c1	5.3	0				
COc1ccc(Nc2c(-c3ccc4[nH]nc(C)c4c3)nc3cnc(N4CCN(C)CC4)cn23)cc1OC	6.9	6.27		12.7	0	
Cc1n[nH]c2ccc(-c3nc4cnc(N5CCOCC5)cn4c3Nc3ccccc3)cc12	6.1	0		3.79		IC50 (CWR22R [7]): 38.2 µM
Cc1n[nH]c2ccc(-c3nc4cnc(N5CCOCC5)cn4c3Nc3ccc(Br)cc3)cc12	6.9	45.9		4.69	10.1	
Cc1sc2c(c1C)C(c1ccc(Cl)cc1)=N[C@@H](CC(=O)OC(C)(C)C)c1nnc(C)n1-2			0.017			inhibition (INH) (MV4-11 [2]; time 96-120 hrs): 90.01%; ΔTm [8]: -0.5 °C; IC50 (CWR22R [7]): 0.033 µM; inhibition (INH) (CWR22R [5]; time 96-120 hrs): 82.88%
Cc1n[nH]c2ccc(-c3nc4cnc(N5CCC(C)CC5)cn4c3Nc3ccc(Cl)cc3)cc12	2.1	27.9		20.4	12.6	
COc1ccc(Nc2c(-c3ccc4[nH]nc(C)c4c3)nc3cnc(N4CCOCC4)cn23)cc1	6.9	11.5		5.15	1.2	
Cc1n[nH]c2ccc(-c3nc4cnc(N5CCN(C)CC5)cn4c3Nc3ccccc3Cl)cc12	3.6	58.1				
Cc1n[nH]c2ccc(-c3nc4cnc(N5CCN(C)CC5)cn4c3Nc3ccccc3F)cc12	6.9	0		9.89	0	
Cc1n[nH]c2ccc(-c3nc4cnc(N5CCN(C)CC5)cn4c3Nc3cccc(F)c3)cc12	6.9	18.5		14.3	5.41	
Cc1n[nH]c2ccc(-c3nc4cnc(N5CCOCC5)cn4c3Nc3ccc(Cl)cc3)cc12	7.5	84	3.7	3.55	13.8	ΔTm [9]: 0 °C; ΔTm [10]: -1.5 °C; ΔTm [11]: 2.3 °C; inhibition [12]: Active; ΔTm [13]: -2 °C; ΔTm [8]: 0 °C; ΔTm [14]: 1 °C; ΔTm [15]: -1 °C; IC50 (CWR22R [7]): 15.8 µM; ΔTm [16]: -1.5 °C
Cc1n[nH]c2ccc(-c3nc4cnc(N5CCN(C)CC5)cn4c3Nc3ccccc3)cc12	5	0		6.1		
